From the NIST ThermoML archive (doi:10.1016/j.fluid.2006.09.024)
± gives the expanded uncertainty stated by the source.

What was measured:
[1] = Liquid, Ebulliometric method (Recirculating still)
[2] = xn = mol fraction of the nth substance listed; details: 101 kPa, Liquid

C1C[C@@H]2[C@@H]3CC[C@@H](C3)[C@@H]2C1 [endo-tetrahydrodicyclopentadiene]
[1]
Details	vapor or sublimation pressure [kPa]
344.02 K	2 ± 0.2
358.17 K	3.5 ± 0.2
367.23 K	5 ± 0.2
384.68 K	10 ± 0.2
396.77 K	15 ± 0.2
405.51 K	20 ± 0.2
412.5 K	25 ± 0.2
418.51 K	30 ± 0.2
423.84 K	35 ± 0.2
428.42 K	40 ± 0.2
432.64 K	45 ± 0.2
436.48 K	50 ± 0.2
440.06 K	55 ± 0.2
443.43 K	60 ± 0.2
446.4 K	65 ± 0.2
451.93 K	75 ± 0.2
454.45 K	80 ± 0.2
456.82 K	85 ± 0.2
458.86 K	90 ± 0.2
460.9 K	95 ± 0.2
462.76 K	100 ± 0.2
463.6 K	101.6 ± 0.2

C1C[C@@H]2[C@@H]3CC[C@@H](C3)[C@@H]2C1 [endo-tetrahydrodicyclopentadiene] + C1C[C@@H]2[C@H]3CC[C@H](C3)[C@@H]2C1
[2]
Details	kinematic viscosity, 288.15 K [m2/s]	kinematic viscosity, 298.15 K [m2/s]	kinematic viscosity, 308.15 K [m2/s]	kinematic viscosity, 318.15 K [m2/s]	mass density, 288.15 K [kg/m3]	mass density, 298.15 K [kg/m3]	mass density, 308.15 K [kg/m3]	mass density, 318.15 K [kg/m3]
x2 = 0.4028	6.06e-06 ± 1.6e-07	4.7e-06 ± 1.3e-07	3.67e-06 ± 1.1e-07	2.99e-06 ± 8.7e-08	954.39 ± 0.27	946.44 ± 0.29	938.48 ± 0.3	930.47 ± 0.32
x2 = 0.5145	5.23e-06 ± 1.5e-07	4.1e-06 ± 1.2e-07	3.23e-06 ± 9.4e-08	2.67e-06 ± 7.8e-08	951.54 ± 0.27	943.63 ± 0.29	935.68 ± 0.31	927.69 ± 0.32
x2 = 0.6017	4.62e-06 ± 1.3e-07	3.68e-06 ± 1.1e-07	2.96e-06 ± 8.6e-08	2.46e-06 ± 7.3e-08	949.22 ± 0.28	941.29 ± 0.29	933.37 ± 0.31	925.41 ± 0.33
x2 = 0.6956	4.18e-06 ± 1.2e-07	3.35e-06 ± 9.7e-08	2.72e-06 ± 8e-08	2.29e-06 ± 6.8e-08	946.72 ± 0.28	938.85 ± 0.3	930.9 ± 0.31	923 ± 0.33
x2 = 0.7966	3.86e-06 ± 1.1e-07	3.06e-06 ± 8.9e-08	2.49e-06 ± 7.3e-08	2.12e-06 ± 6.3e-08	944.23 ± 0.29	936.36 ± 0.3	928.49 ± 0.32	920.59 ± 0.33
x2 = 0.9069	3.47e-06 ± 1e-07	2.82e-06 ± 8.2e-08	2.31e-06 ± 6.8e-08	1.97e-06 ± 5.9e-08	941.57 ± 0.29	933.78 ± 0.31	925.9 ± 0.32	918.06 ± 0.34
x2 = 0.9933	3.18e-06 ± 9.2e-08	2.65e-06 ± 7.8e-08	2.22e-06 ± 6.6e-08	1.87e-06 ± 5.6e-08	939.58 ± 0.29	931.79 ± 0.31	923.99 ± 0.32	916.14 ± 0.34

C1C[C@@H]2[C@H]3CC[C@H](C3)[C@@H]2C1 [exo-tetrahydrodicyclopentadiene]
[1]
Details	vapor or sublimation pressure [kPa]
335.45 K	2 ± 0.2
349.97 K	3.5 ± 0.2
360.37 K	5 ± 0.2
379.33 K	10 ± 0.2
391.56 K	15 ± 0.2
400.07 K	20 ± 0.2
407.31 K	25 ± 0.2
413.28 K	30 ± 0.2
418.87 K	35 ± 0.2
423.1 K	40 ± 0.2
427.5 K	45 ± 0.2
431.46 K	50 ± 0.2
434.98 K	55 ± 0.2
438.26 K	60 ± 0.2
441.37 K	65 ± 0.2
444.02 K	70 ± 0.2
447.09 K	75 ± 0.2
449.62 K	80 ± 0.2
452.19 K	85 ± 0.2
454.39 K	90 ± 0.2
456.75 K	95 ± 0.2
458.83 K	100 ± 0.2
459.38 K	101.4 ± 0.2
